Test [1] relates to p21 induction in HCT 116 cells. Put plainly: p21 induction in cells (In-Cell Western, p21/GAPDH ratio). The class given is cell-based. The conditions noted are these: Homo sapiens, HCT-116, 24 h, 24 h compound incubation, read-out: P21_EC50. In short, it runs like this: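 p21 and GAPDH signals quantified by In-Cell Western after 24 h compound exposure of HCT 116 cells (11 concentrations, 2-fold steps, usual top 10 μM). Percent activation from p21/GAPDH ratio relative to DMSO (low) and internal WRN inhibitor (high) controls; curve fit gave EC50.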

Test [2] addresses T1, human Werner helicase (WRN, Uniprot Q14191, amino acids 517-1235 with L1074F point mutation; WRN-BV08) (Homo sapiens, UniProt Q14191, L1074F).
T1 construct: Uniprot Q14191, amino acids 517-1235 with L1074F point mutation; 8xHis (C, cleaved yes); TEV cleavage site (ENLYFQG) (C, cleaved yes); made in house; host or cells: Sf9 insect cells (baculovirus, pFastBac)
Put plainly: WRN (BV08) ADP-Glo assay. The test is classed as biochemical. The note with it: WRN-BV08 (aa 517-1235, L1074F); read-out: ADP-Glo_hWRN_IC50. Summed up:
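ADP formed by untagged WRN helicase fragment (aa 517-1235, L1074F; 0.15 nM final) on 0.1 nM DNA duplex with […], 60 min at 25 °C after 15 min compound preincubation, pH 7.5 Bicine buffer. Luminescent ADP-Glo readout; IC50 from 4-parameter fit of % inhibition.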
For orientation: ADP-Glo turns the ADP formed in a reaction into a luminescent signal.

T1 sequence (Q14191 with tags, fused parts or gaps L1074F): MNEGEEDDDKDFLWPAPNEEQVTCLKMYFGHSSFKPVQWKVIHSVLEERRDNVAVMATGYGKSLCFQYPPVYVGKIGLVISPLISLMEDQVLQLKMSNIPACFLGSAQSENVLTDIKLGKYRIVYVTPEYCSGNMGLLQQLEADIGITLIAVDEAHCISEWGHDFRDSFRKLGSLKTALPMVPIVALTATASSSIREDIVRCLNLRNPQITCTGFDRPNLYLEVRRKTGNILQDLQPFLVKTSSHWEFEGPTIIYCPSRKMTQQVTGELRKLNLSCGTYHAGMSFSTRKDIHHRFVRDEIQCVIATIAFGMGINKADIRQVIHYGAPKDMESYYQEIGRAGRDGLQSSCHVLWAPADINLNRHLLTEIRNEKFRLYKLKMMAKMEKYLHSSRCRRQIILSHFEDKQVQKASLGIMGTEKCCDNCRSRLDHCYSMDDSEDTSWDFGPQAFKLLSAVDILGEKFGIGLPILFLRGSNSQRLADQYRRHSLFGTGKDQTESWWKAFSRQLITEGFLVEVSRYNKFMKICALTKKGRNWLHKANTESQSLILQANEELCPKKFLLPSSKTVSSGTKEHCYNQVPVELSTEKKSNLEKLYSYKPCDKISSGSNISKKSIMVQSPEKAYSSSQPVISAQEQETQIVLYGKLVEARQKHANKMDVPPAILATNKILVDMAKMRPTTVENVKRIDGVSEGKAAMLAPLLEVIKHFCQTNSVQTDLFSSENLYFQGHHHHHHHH

In the case of `CCc1c(N2CCN(C(=O)c3c(O)ccc4ncoc34)CC2)c(=O)n2nc(-c3ccnc(OC)c3)nc2n1CC(=O)NC12COC(C(F)(F)F)(C1)C2` [I-44, 2-(5-ethyl-6-(4-(6-hydroxybenzo[d]oxazole-7-carbonyl)piperazin-1-yl)-2-(2-methoxypyridin-4-yl)-7-oxo-[1,2,4]triazolo[1,5-a]pyrimidin-4(7H)-yl)-N-(1-(trifluoromethyl)-2-oxabicyclo[2.1.1]hexan-4-yl)acetamide], in test [1], the EC50 is 2000 to 5000 nM. The IC50 in test [2] was in the range of 5 to 50 nM.

Regarding `CCc1c(N2CCN(C(=O)c3ncnc(C)c3O)CC2)c(=O)c2nc(-c3ccnc(OC)c3)oc2n1CC(=O)NC12CC(C(F)(F)F)(C1)C2` [I-16, 2-(5-ethyl-6-(4-(5-hydroxy-6-methylpyrimidine-4-carbonyl)piperazin-1-yl)-2-(2-methoxypyridin-4-yl)-7-oxooxazolo[5,4-b]pyridin-4(7H)-yl)-N-(3-(trifluoromethyl)bicyclo[1.1.1]pentan-1-yl)acetamide], in test [1], the EC50 is over 5000 nM. In addition, in test [2], the IC50 was 5 to 50 nM.

Regarding `CCc1c(N2CCN(C(=O)c3c(OC)ccnc3O)[C@H]3CC[C@@H]32)c(=O)c2nn(C3=CCOCC3)nc2n1CC(=O)NC12CC(C(C)C)(C1)C2` [I-205, 2-(2-(3,6-dihydro-2H-pyran-4-yl)-5-ethyl-6-((1S,6S)-5-(2-hydroxy-4-methoxynicotinoyl)-2,5-diazabicyclo[4.2.0]octan-2-yl)-7-oxo-2,7-dihydro-4H-[1,2,3]triazolo[4,5-b]pyridin-4-yl)-N-(3-isopropylbicyclo[1.1.1]pentan-1-yl)acetamide], the EC50 in test [1] is over 5000 nM. For the same compound, the IC50 in test [2] fell in the range of 5 to 50 nM.

For the compound `CCc1c(N2CCN(C(=O)c3ncc4c(c3O)CCO4)CC2)c(=O)n2nc(C3=CCOCC3)nc2n1CC(=O)NC12CC(C3CCC3)(C1)C2` [I-211, N-(3-cyclobutylbicyclo[1.1.1]pentan-1-yl)-2-(2-(3,6-dihydro-2H-pyran-4-yl)-5-ethyl-6-(4-(4-hydroxy-2,3-dihydrofuro[2,3-c]pyridine-5-carbonyl)piperazin-1-yl)-7-oxo-[1,2,4]triazolo[1,5-a]pyrimidin-4(7H)-yl)acetamide], in test [1], the EC50 lay in the range of 500 to 2000 nM. For the same compound, in test [2], the IC50 is 5 to 50 nM.

Regarding `CCc1c(N2CCN(C(=O)c3c(O)ccnc3OC)CC2)c(=O)n2nc(C3=CCOCC3)nc2n1CC(=O)NC12CC(C(F)(F)F)(C1)C2` [I-239, 2-(2-(3,6-dihydro-2H-pyran-4-yl)-5-ethyl-6-(4-(4-hydroxy-2-methoxynicotinoyl)piperazin-1-yl)-7-oxo-[1,2,4]triazolo[1,5-a]pyrimidin-4(7H)-yl)-N-(3-(trifluoromethyl)bicyclo[1.1.1]pentan-1-yl)acetamide], the EC50 in test [1] is over 5000 nM. The IC50 in test [2] lay within 50 to 100 nM.

As for `CCc1c(N2CCN(C(=O)c3c(O)ccc4ncoc34)CC2)c(=O)n2nc(-c3ccnc(OC)c3)nc2n1CC(=O)NC12C3C4C1C1C2C3C41C(F)(F)F` (stereo not shown) [I-220, 2-(5-ethyl-6-(4-(6-hydroxybenzo[d]oxazole-7-carbonyl)piperazin-1-yl)-2-(2-methoxypyridin-4-yl)-7-oxo-[1,2,4]triazolo[1,5-a]pyrimidin-4(7H)-yl)-N-(4-(trifluoromethyl)cuban-1-yl)acetamide], the EC50 in test [1] lay in the range of 500 to 2000 nM. Also, in test [2], the IC50 lay within 5 to 50 nM.

On to `CCc1c(N2CCN(C(=O)c3ncnc(C)c3O)CC2)c(=O)n2nc(-c3ccncc3)nc2n1CC(=O)NC12CC(C3CCC3)(C1)C2` [I-219, N-(3-cyclobutylbicyclo[1.1.1]pentan-1-yl)-2-(5-ethyl-6-(4-(5-hydroxy-6-methylpyrimidine-4-carbonyl)piperazin-1-yl)-7-oxo-2-(pyridin-4-yl)-[1,2,4]triazolo[1,5-a]pyrimidin-4(7H)-yl)acetamide], for which the EC50 in test [1] was 500 to 2000 nM. Further, in test [2], the IC50 was in the range of 5 to 50 nM.

With `CCc1c(N2CCN(C(=O)c3ncnc(C)c3O)[C@H]3CC[C@@H]32)c(=O)c2nc(N(C)C)cnc2n1CC(=O)NC1CC2(CC(C)C2)C1` (stereo partly drawn) [I-238, 2-(2-(dimethylamino)-6-ethyl-7-((1S,6S)-5-(5-hydroxy-6-methylpyrimidine-4-carbonyl)-2,5-diazabicyclo[4.2.0]octan-2-yl)-8-oxopyrido[2,3-b]pyrazin-5(8H)-yl)-N-(6-methylspiro[3.3]heptan-2-yl)acetamide], in test [1], the EC50 is over 5000 nM. The IC50 in test [2] lay within 50 to 100 nM.

For the compound `CCc1c(N2CCN(C(=O)c3cccc(N4CCN(C)CC4)c3)[C@H]3CC[C@@H]32)c(=O)c2nn(C3=CCOCC3)nc2n1CC(=O)NC12CC(C(C)C)(C1)C2` [I-201, 2-(2-(3,6-dihydro-2H-pyran-4-yl)-5-ethyl-6-((1S,6S)-5-(3-(4-methylpiperazin-1-yl)benzoyl)-2,5-diazabicyclo[4.2.0]octan-2-yl)-7-oxo-2,7-dihydro-4H-[1,2,3]triazolo[4,5-b]pyridin-4-yl)-N-(3-isopropylbicyclo[1.1.1]pentan-1-yl)acetamide], the EC50 in test [1] fell in the range of 500 to 2000 nM. Besides, the IC50 in test [2] was at most 5 nM.

Regarding `CCc1c(N2CCN(C(=O)c3c(O)ccc4ncoc34)CC2)c(=O)n2nc(C3=CCOCC3)nc2n1CC(=O)NC12CC(C(C)C)(C1)C2` [I-42, 2-(2-(3,6-dihydro-2H-pyran-4-yl)-5-ethyl-6-(4-(6-hydroxybenzo[d]oxazole-7-carbonyl)piperazin-1-yl)-7-oxo-[1,2,4]triazolo[1,5-a]pyrimidin-4(7H)-yl)-N-(3-isopropylbicyclo[1.1.1]pentan-1-yl)acetamide], the EC50 in test [1] was at most 500 nM. Also, in test [2], the IC50 lay in the range of 5 to 50 nM.

Take `CCc1c(N2CCN(C(=O)c3c(OC)ncc(C)c3O)CC2)c(=O)c2nc(N(C)C)cnc2n1CC(=O)NC12CC(C(F)(F)F)(C1)C2` [I-240, 2-(2-(dimethylamino)-6-ethyl-7-(4-(4-hydroxy-2-methoxy-5-methylnicotinoyl)piperazin-1-yl)-8-oxopyrido[2,3-b]pyrazin-5(8H)-yl)-N-(3-(trifluoromethyl)bicyclo[1.1.1]pentan-1-yl)acetamide]: the EC50 in test [1] is over 5000 nM. The IC50 in test [2] was 50 to 100 nM.

As to `CCc1c(N2CCN(C(=O)c3ncnc(C)c3O)[C@H]3CC[C@@H]32)c(=O)n2nc(C3=CCOCC3)nc2n1CC(=O)NC12CC(C(C)C)(C1)C2` [I-222, 2-(2-(3,6-dihydro-2H-pyran-4-yl)-5-ethyl-6-((1S,6S)-5-(5-hydroxy-6-methylpyrimidine-4-carbonyl)-2,5-diazabicyclo[4.2.0]octan-2-yl)-7-oxo-[1,2,4]triazolo[1,5-a]pyrimidin-4(7H)-yl)-N-(3-isopropylbicyclo[1.1.1]pentan-1-yl)acetamide], the EC50 in test [1] was at most 500 nM. The IC50 in test [2] was in the range of 5 to 50 nM.

As for `CCc1c(N2CCN(C(=O)c3ncc4c(c3O)CCO4)CC2)c(=O)n2nc(C3=CCOCC3)nc2n1CC(=O)NC12CC(C3CC3)(C1)C2` [I-9, N-(3-cyclopropylbicyclo[1.1.1]pentan-1-yl)-2-(2-(3,6-dihydro-2H-pyran-4-yl)-5-ethyl-6-(4-(4-hydroxy-2,3-dihydrofuro[2,3-c]pyridine-5-carbonyl)piperazin-1-yl)-7-oxo-[1,2,4]triazolo[1,5-a]pyrimidin-4(7H)-yl)acetamide], the EC50 in test [1] was 500 to 2000 nM. Also, the IC50 in test [2] lay in the range of 5 to 50 nM.

With `CCc1c(N2CCN(C(=O)c3ncnc(C)c3O)[C@H]3CC[C@@H]32)c(=O)c2nc(N(C)C)cnc2n1CC(=O)NC12CC(C3CC3)(C1)C2` [I-232, N-(3-cyclopropylbicyclo[1.1.1]pentan-1-yl)-2-(2-(dimethylamino)-6-ethyl-7-((1S,6S)-5-(5-hydroxy-6-methylpyrimidine-4-carbonyl)-2,5-diazabicyclo[4.2.0]octan-2-yl)-8-oxopyrido[2,3-b]pyrazin-5(8H)-yl)acetamide], the EC50 in test [1] lay in the range of 500 to 2000 nM. Further, the IC50 in test [2] is 5 to 50 nM.

`CCc1c(N2CCN(C(=O)c3c(O)ccc4nc(C)oc34)CC2)c(=O)n2nc(-c3ccnc(OC)c3)nc2n1CC(=O)NC12CC(CC)(C1)C2` [I-215, 2-(5-ethyl-6-(4-(6-hydroxy-2-methylbenzo[d]oxazole-7-carbonyl)piperazin-1-yl)-2-(2-methoxypyridin-4-yl)-7-oxo-[1,2,4]triazolo[1,5-a]pyrimidin-4(7H)-yl)-N-(3-ethylbicyclo[1.1.1]pentan-1-yl)acetamide]: in test [1], the EC50 is at most 500 nM. Further, the IC50 in test [2] fell in the range of 5 to 50 nM.

Take `CCc1c(N2CCN(C(=O)c3ncnc(C)c3O)[C@H]3CC[C@@H]32)c(=O)c2nc(C)c(C)nc2n1CC(=O)NC12CC(C3CC3)(C1)C2` [I-227, N-(3-cyclopropylbicyclo[1.1.1]pentan-1-yl)-2-(6-ethyl-7-((1S,6S)-5-(5-hydroxy-6-methylpyrimidine-4-carbonyl)-2,5-diazabicyclo[4.2.0]octan-2-yl)-2,3-dimethyl-8-oxopyrido[2,3-b]pyrazin-5(8H)-yl)acetamide]: the EC50 in test [1] lay within 500 to 2000 nM. Besides, the IC50 in test [2] lay within 5 to 50 nM.

For the compound `CCc1c(N2CCN(C(=O)c3cnn(C)c3)CC2)c(=O)n2nc(-c3ccnc(OC)c3)nc2n1CC(=O)N[C@@H]1C[C@H]1c1c(F)cccc1F` (racemic) [I-244, rac-N-((1R,2S)-2-(2,6-difluorophenyl)cyclopropyl)-2-(5-ethyl-2-(2-methoxypyridin-4-yl)-6-(4-(1-methyl-1H-pyrazole-4-carbonyl)piperazin-1-yl)-7-oxo-[1,2,4]triazolo[1,5-a]pyrimidin-4(7H)-yl)acetamide], in test [1], the EC50 is over 5000 nM. Further, the IC50 in test [2] was in the range of 100 to 500 nM.

The values above are taken from patent publication US20250206738A1, “WRN INHIBITORS” (Nimbus Wadjet, Inc., priority 2023, published 2025).
